Here are results for four compounds from patent US20090023741A1, “ARYL/HETARYLAMIDES AS MODULATORS OF THE EP2 RECEPTOR” (priority 2007, published 2009).

pIC50: −log10 of the molar value.

By pIC50 is commonly meant the negative decadic logarithm of the IC50, by convention in mol/L. For orientation: inhibition means the share of the control response that was lost under treatment. Lower therefore signals a response near the control.

Experiment [1] addresses T1, EP2 subtype of the human PGE2 receptor (Homo sapiens, UniProt P43116).
T1 construct: host or cells: cells in a cell culture plate
As to the kind of experiment: cAMP agonism assay (cellular agonism test). Type of experiment: cell-based. Particulars: without PGE2. How it is done:
(§1) The binding of PGE2 to the EP2 subtype of the human PGE2 receptor induces activation of membrane-associated adenylate cyclases and leads to the formation of cAMP. In the presence of the phosphodiesterase inhibitor IBMX, cAMP which has accumulated due to this stimulation and been released by cell lysis is employed in a competitive detection method. In this assay, the cAMP in the lysate competes with cAMP-XL665 for binding of an Eu cryptate-labelled anti-cAMP antibody.
(§2) The two signals are measured in a suitable measuring instrument with a time lag, i.e. after the background fluorescence has declined.
(§3) The substance solutions (0.75 μl) introduced into an assay plate and 30% DMSO are dissolved in 16 μl of a KRSB+IBMX stimulation solution (1× Krebs-Ringer Bicarbonate Buffer; Sigma-Aldrich # K-4002; including 750 μM 3-isobutyl-1-methylxanthine Sigma-Aldrich # I-7018), and then 15 μl thereof are transferred into a media-free cell culture plate which has been washed with KRSB shortly beforehand.
After incubation at room temperature (RT; volume: ˜15 μl) for 60 minutes, the reaction is then stopped by adding 5 μl of lysis buffer and incubated at RT for a further 20 min (volume: ˜20 μl). The cell lysate is then transferred into a measuring plate and measured in accordance with the manufacturer's information (cyclic AMP kit Cisbio International # 62AMPPEC).

Experiment [2] addresses T1, EP2 subtype of the human PGE2 receptor. As to the kind of experiment: cAMP antagonism assay (HTRF, PGE2-stimulated cells). The class given is cell-based. Particulars: in presence of PGE2. How it is done:
as §1, §2, §3
After preincubation at room temperature (RT) for 30 minutes, 5 μl of a 4×PGE2 solution (11 nM) are added, and incubation is carried out in the presence of the agonist at RT for a further 60 min (volume: ˜20 μl) before the reaction is then stopped by adding 5 μl of lysis buffer and incubated at RT for a further 20 min (volume: 25 μl). The cell lysate is then transferred into a measuring plate and measured in accordance with the manufacturer's information (cyclic AMP kit Cisbio International # 62AMPPEC).

For experiment [3], the system named is cumulus-oocyte complexes (cumulus expansion). As to the kind of experiment: Cumulus expansion assay in vitro. The class given is cell-based, mice. Particulars: in competition with PGE2. How it is done: Folliculogenesis is induced in immature female mice (strain: CD1 (ICR) from Charles River) at an age of 14-18 days by a single dose (intraperitoneal) of 10 I.U. of PMSG (Pregnant Mare Serum Gonadotropine; Sigma G-4877, Lot 68H0909). 47-50 hours after the injection, the ovaries are removed and the cumulus-oocyte complexes are removed. The cumulus complex is not yet expanded at this stage.
The cumulus-oocyte complexes are then incubated with prostaglandin E2 (PGE2) (0.3 μM), vehicle control (ethanol) or test substances for 20-24 hours. Medium: alpha-MEM medium with 0.1 mM IBMX, pyruvates (0.23 mM) glutamines (2 mM), pen/strep 100 IU/ml pen. and 100 μg/ml strep.) and HSA (8 mg/ml)). Cumulus expansion is then established through the division into four stages (according to Vanderhyden et al. Dev Biol. 1990 August; 140(2):307-317).

T1 sequence (P43116 whole entry): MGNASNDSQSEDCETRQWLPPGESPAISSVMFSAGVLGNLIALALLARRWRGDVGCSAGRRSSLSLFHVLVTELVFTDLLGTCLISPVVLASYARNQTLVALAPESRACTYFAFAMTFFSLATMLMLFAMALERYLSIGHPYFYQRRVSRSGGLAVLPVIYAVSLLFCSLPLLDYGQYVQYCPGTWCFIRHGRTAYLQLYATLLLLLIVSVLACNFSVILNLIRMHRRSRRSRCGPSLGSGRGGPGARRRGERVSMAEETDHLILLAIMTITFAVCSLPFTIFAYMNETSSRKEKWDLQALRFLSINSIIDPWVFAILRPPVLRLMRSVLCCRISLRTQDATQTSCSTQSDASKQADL

Regarding `Cc1[nH]c2c(F)ccc(C)c2c1CCNC(=O)c1ccc(-c2ccc(F)cc2)cc1` [Example 29, 4′-Fluorobiphenyl-4-carboxylic acid [2-(7-fluoro-2,4-dimethyl-1H-indol-3-yl)ethyl]amide], the “effect in the cellular agonism test” value in experiment [1] was “no inhibition”. Further, the pIC50 in experiment [2] is 5.92. This compound returned an inhibition at 10 µM in experiment [3] (Mus musculus, concentration 10 μM) of around 20%.

In the case of `Cc1[nH]c2c(F)ccc(C)c2c1CCNC(=O)c1ccc(C(F)(F)F)cc1` [Example 6, N-[2-(7-Fluoro-2,4-dimethyl-1H-indol-3-yl)ethyl]-4-trifluoromethylbenzamide], in experiment [2], the pIC50 is 5.82.

Regarding `COc1cc(C(=O)NCCc2c(C)[nH]c3c(F)ccc(C)c23)cc(OC)c1OC` [Example 2, N-[2-(7-Fluoro-2,4-dimethyl-1H-indol-3-yl)ethyl]-3,4,5-trimethoxybenzamide], the pIC50 in experiment [2] was 5.17.

Turning to `CC(C)Oc1ccc2c(=O)c3cc(C(=O)O)ccc3oc2c1` [AH 6809, reference compound], the “inhibition of cumulus expansion” value in experiment [3] (concentration 100-200 μM) is on record as around 30%.
